Measured values taken from PubChem BioAssay AID248 (DTP/NCI, 2004).
Values joined by “and” are separate entries in the source; they are usually repeats but may differ in a detail not shown here. Equal values may be shown once. Inconclusive results and toxic doses are left out. Rule as the data show it: active = T/C of 150% or more; inactive = T/C below 125%.

Test system: L1210 leukemia ip in BDF1 mice, survival T/C
Experiment: NCI In Vivo Anticancer Drug Screen. Data for tumor model L1210 Leukemia (intraperitoneal) in B6D2F1 (BDF1) mice
Settings: endpoint: mean survival time, vehicle: water, higher = longer survival
Outline: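 Value reflects the ratio of survival in compound-treated mice to survival in vehicle-treated controls, with both groups carrying the same transplanted tumor.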

Measured: T/C

O=C(NO)c1ccncc1
inactive: dose: 6.25 mg/kg/injection, schedule: Q03HX008 (ip) 96 % of control | dose: 12.5 mg/kg/injection, schedule: Q03HX008 (ip) 100 % of control | dose: 18.75 mg/kg/injection, schedule: Q03HX008 (ip) 95 % of control | dose: 25.0 mg/kg/injection, schedule: Q01DX005 (iv) 100 % of control | dose: 33.0 mg/kg/injection, schedule: Q#B X027 (sc) 98 % of control | dose: 50.0 mg/kg/injection, schedule: Q01DX005 (iv) 100 % of control and 105 % of control | dose: 50.0 mg/kg/injection, schedule: Q01DX009 (sc) 98 % of control | dose: 67.0 mg/kg/injection, schedule: Q#B X027 (ip) 98 % of control | dose: 100.0 mg/kg/injection, schedule: Q01DX005 (iv) 101 % of control and 102 % of control and 105 % of control | dose: 100.0 mg/kg/injection, schedule: Q01DX009 (ip) 94 % of control and 100 % of control | dose: 100.0 mg/kg/injection, schedule: Q01DX009 (sc) 93 % of control and 100 % of control | dose: 100.0 mg/kg/injection, schedule: Q01DX010 (ip) 106 % of control | dose: 125.0 mg/kg/injection, schedule: Q01DX001 (ip) 97 % of control | dose: 133.0 mg/kg/injection, schedule: Q#B X027 (ip) 103 % of control | dose: 134.0 mg/kg/injection, schedule: Q#B X027 (sc) 107 % of control | dose: 200.0 mg/kg/injection, schedule: Q01DX001 (ip) 107 % of control | dose: 200.0 mg/kg/injection, schedule: Q01DX005 (ip) 101 % of control | dose: 200.0 mg/kg/injection, schedule: Q01DX005 (iv) 100 % of control and 101 % of control | dose: 200.0 mg/kg/injection, schedule: Q01DX009 (sc) 96 % of control | dose: 200.0 mg/kg/injection, schedule: Q01DX010 (ip) 107 % of control | dose: 200.0 mg/kg/injection, schedule: Q01DX Z (ip) 117 % of control | dose: 200.0 mg/kg/injection, schedule: Q02DX Z (ip) 114 % of control | dose: 200.0 mg/kg/injection, schedule: Q04DX003 (ip) 103 % of control | dose: 200.0 mg/kg/injection, schedule: Q08DX002 (ip) 103 % of control | dose: 200.0 mg/kg/injection, schedule: Q#A X030 (ip) 98 % of control | dose: 200.0 mg/kg/injection, schedule: Q#B X027 (ip) 122 % of control | dose: 200.0 mg/kg/injection, schedule: Q#B X027 (sc) 98 % of control | dose: 220.0 mg/kg/injection, schedule: Q01DX Z (ip) 111 % of control | dose: 222.0 mg/kg/injection, schedule: Q01DX015 (ip) 104 % of control | dose: 222.0 mg/kg/injection, schedule: Q01DX Z (ip) 105 % of control and 106 % of control and 119 % of control | dose: 225.0 mg/kg/injection, schedule: Q01DX Z (ip) 109 % of control | dose: 250.0 mg/kg/injection, schedule: Q01DX001 (ip) 94 % of control and 108 % of control | dose: 250.0 mg/kg/injection, schedule: Q01DX005 (iv) 97 % of control | dose: 250.0 mg/kg/injection, schedule: Q01DX009 (oral) 96 % of control and 98 % of control | dose: 250.0 mg/kg/injection, schedule: Q01DX009 (sc) 93 % of control | dose: 250.0 mg/kg/injection, schedule: Q01DX015 (iv) 106 % of control | dose: 250.0 mg/kg/injection, schedule: Q03HX024 (ip) 100 % of control | dose: 267.0 mg/kg/injection, schedule: Q#B X027 (sc) 97 % of control | dose: 270.0 mg/kg/injection, schedule: Q01DX015 (ip) 121 % of control | dose: 300.0 mg/kg/injection, schedule: Q01DX015 (im) 93 % of control | dose: 300.0 mg/kg/injection, schedule: Q01DX Z (ip) 112 % of control | dose: 300.0 mg/kg/injection, schedule: Q02DX Z (ip) 112 % of control | dose: 300.0 mg/kg/injection, schedule: Q#A X030 (ip) 98 % of control | dose: 333.0 mg/kg/injection, schedule: Q01DX015 (ip) 119 % of control | dose: 333.0 mg/kg/injection, schedule: Q01DX Z (ip) 120 % of control | dose: 335.0 mg/kg/injection, schedule: Q01DX Z (ip) 97 % of control and 116 % of control | dose: 400.0 mg/kg/injection, schedule: Q01DX001 (ip) 100 % of control | dose: 400.0 mg/kg/injection, schedule: Q01DX005 (iv) 103 % of control | dose: 400.0 mg/kg/injection, schedule: Q01DX009 (sc) 100 % of control | dose: 400.0 mg/kg/injection, schedule: Q01DX015 (ip) 111 % of control | dose: 400.0 mg/kg/injection, schedule: Q01DX015 (sc) 104 % of control | dose: 400.0 mg/kg/injection, schedule: Q04DX003 (ip) 114 % of control | dose: 400.0 mg/kg/injection, schedule: Q08DX002 (ip) 105 % of control | dose: 500.0 mg/kg/injection, schedule: Q01DX001 (ip) 111 % of control and 113 % of control | dose: 500.0 mg/kg/injection, schedule: Q01DX005 (iv) 100 % of control | dose: 500.0 mg/kg/injection, schedule: Q01DX009 (oral) 93 % of control and 105 % of control | dose: 500.0 mg/kg/injection, schedule: Q01DX009 (sc) 94 % of control and 100 % of control | dose: 500.0 mg/kg/injection, schedule: Q01DX015 (im) 104 % of control | dose: 500.0 mg/kg/injection, schedule: Q01DX015 (ip) 121 % of control | dose: 500.0 mg/kg/injection, schedule: Q01DX015 (oral) 97 % of control | dose: 500.0 mg/kg/injection, schedule: Q03HX024 (ip) 98 % of control | dose: 600.0 mg/kg/injection, schedule: Q01DX001 (ip) 105 % of control | dose: 600.0 mg/kg/injection, schedule: Q01DX005 (ip) 101 % of control | dose: 600.0 mg/kg/injection, schedule: Q01DX005 (iv) 103 % of control | dose: 600.0 mg/kg/injection, schedule: Q01DX015 (sc) 98 % of control | dose: 600.0 mg/kg/injection, schedule: Q02DX Z (ip) 123 % of control | dose: 600.0 mg/kg/injection, schedule: Q03DX005 (ip) 108 % of control | dose: 600.0 mg/kg/injection, schedule: Q04DX003 (ip) 120 % of control | dose: 600.0 mg/kg/injection, schedule: Q08DX002 (ip) 105 % of control | dose: 750.0 mg/kg/injection, schedule: Q01DX009 (oral) 100 % of control | dose: 750.0 mg/kg/injection, schedule: Q01DX009 (sc) 111 % of control | dose: 750.0 mg/kg/injection, schedule: Q01DX015 (im) 113 % of control | dose: 750.0 mg/kg/injection, schedule: Q01DX015 (ip) 113 % of control | dose: 750.0 mg/kg/injection, schedule: Q03HX024 (ip) 96 % of control | dose: 800.0 mg/kg/injection, schedule: Q01DX005 (ip) 107 % of control | dose: 800.0 mg/kg/injection, schedule: Q01DX Z (ip) 114 % of control | dose: 800.0 mg/kg/injection, schedule: Q03DX005 (ip) 107 % of control | dose: 800.0 mg/kg/injection, schedule: Q08DX002 (ip) 111 % of control | dose: 900.0 mg/kg/injection, schedule: Q01DX001 (ip) 105 % of control | dose: 1000.0 mg/kg/injection, schedule: Q01DX001 (ip) 106 % of control | dose: 1000.0 mg/kg/injection, schedule: Q01DX009 (oral) 102 % of control and 105 % of control | dose: 1000.0 mg/kg/injection, schedule: Q01DX015 (oral) 109 % of control | dose: 1000.0 mg/kg/injection, schedule: Q03HX024 (ip) 95 % of control | dose: 1100.0 mg/kg/injection, schedule: Q03DX005 (ip) 108 % of control | dose: 1500.0 mg/kg/injection, schedule: Q03HX024 (ip) 113 % of control
